From patent EP2502917A1, “Solid state crystalline forms of 4-(2-ethyl-5-fluoro-2,3-dihydro-1H-inden-2-yl)-1H-imidazole” (Santhera Pharmaceuticals (Schweiz) AG, priority 2011, dated 2012)

How the values were obtained:
[1] = Aqueous solubility by UV/Vis spectroscopy (extinction at 270 nm) of the filtered suspension; assay type: physicochemical; conditions: remaining solid is form A, aliquot diluted by a factor of 500, extinction at 270 nm
Method: A suspension of 118 mg fipamezole hydrochloride form B in 1 mL H2O is stirred at room temperature for two days. […] An aliquot of the solution is diluted with water by a factor of 500 and analyzed by UVNis spectroscopy.
A suspension of 97 mg fipamezole hydrochloride form B* in 0.5 mL H2O is stirred at room temperature for two days. […] An aliquot of the solution is diluted with water by a factor of 500 and analyzed by UVNis spectroscopy.
A suspension of 110 mg fipamezole hydrochloride form D in 0.5 mL H2O is stirred at room temperature for two days. […] An aliquot of the solution is diluted with water by a factor of 500 and analyzed by UVNis spectroscopy.

[2] = Thermodynamic stability of polymorphs (differential scanning calorimetry); assay type: physicochemical; conditions: enantiotropic pair: form A is the low temperature form, form D the high temperature form
Method: Both forms can be converted into each other, accordingly, forms A and D represent an enantiotropic pair of polymorphs whereby form A is the low temperature form and form D the high temperature form. Differential Scanning Calorimetry (DSC): DSC measurements were carried out on a Perkin Elmer DSC-7. The samples were placed into gold crucibles that were sealed under nitrogen. The measurements were performed with a heating rate of 10 or 20 °C min^-1 over the temperature range from -50 °C to about 200°C.

aqueous solubility ([1]; suspension of form B* in H2O stirred at room temperature for two days): about 43 g/L | aqueous solubility ([1]; suspension of form D in H2O stirred at room temperature for two days): about 46 g/L | solubility at 2 days ([1]; water, thermodynamic from solid, suspension of form B in H2O stirred at room temperature for two days): ~46 mg/mL | thermodynamic stability [2]: high thermodynamic stability
SMILES: CCC1(c2c[nH]cn2)Cc2ccc(F)cc2C1.Cl (stereo not shown) [form A, 4-(2-Ethyl-5-fluoro-2,3-dihydro-1H-inden-2-yl)-1H-imidazole hydrochloride]
